Laboratory results published in publication PMC8113459, “Selective inhibition of cullin 3 neddylation through covalent targeting DCN1 protects mice from acetaminophen-induced liver toxicity” (Nature Communications, 2021).

Columns and labels:
DCN1 [1] = target: T1, DCN1 (Homo sapiens, UniProt Q96GG9); experiment: Intact-protein mass spectrometric analysis of covalent complex formation, Method A; format: binding; conditions: for Percentage of the formation of covalent complex with DCN1 protein: 37 °C
Text: MassHunter Qualitative Analysis software (Agilent) was used to analyze the data. Intact protein masses were obtained using the maximum entropy deconvolution algorithm. The mass spectrometry data in Supplementary Figs. 1–11 were generated by Method A.
Target sequence in this assay (Q96GG9 58-259 limits assumed): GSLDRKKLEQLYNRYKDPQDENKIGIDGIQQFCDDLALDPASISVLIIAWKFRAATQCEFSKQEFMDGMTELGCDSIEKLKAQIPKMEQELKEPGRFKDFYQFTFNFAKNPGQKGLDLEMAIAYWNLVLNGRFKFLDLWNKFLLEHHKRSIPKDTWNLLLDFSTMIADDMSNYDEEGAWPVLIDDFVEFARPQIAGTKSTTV

Solubility = format: physicochemical
DCN1 [2] = target: T1, DCN1; experiment: Cocrystal structures of lyso-DCN1-inhibitor complexes; design: to DCN1 residues 62–251; His6 (N); TEV cleavage site (N); lysozyme residues 1–164 with C54T, C97A, A146T, D127A, R154A (fusion partner, N-terminal of DCN1); made in house; host or cells: Rosetta 2 cells (E. coli)
Method: Lysozyme–DCN1 gene was synthesized fusing lysozyme residues 1–164, containing mutations (C54T, C97A, A146T, D127A, and R154A), to DCN1 residues 62–251. Ligation independent cloning was utilized to clone the fused gene into an N-terminal His6–TEV expression vector. The clone was transformed into Rosetta 2 cells, grown in terrific broth at 37 °C, and expressed overnight with 0.4 mM isopropyl β-D-1-thiogalactopyranoside at 20 °C. Pelleted cells were freeze-thawed and lysed in 25 mM HEPES, pH 7.5, 150 mM NaCl, 0.1% β-mercaptoethanol and protease inhibitors. Cellular debris was removed via centrifugation. The supernatant was loaded onto a Ni-NTA (Qiagen) column at 4 °C. The column was washed with 25 mM HEPES, pH 7.5, 150 mM NaCl, and 20 mM imidazole, then protein eluted with buffer containing 300 mM imidazole. The eluate was applied to a Superdex 200 (GE Healthcare) equilibrated with 25 mM HEPES, pH 7.5, 200 mM NaCl, and 1 mM DTT. The protein was judged to be greater than 95% pure by SDS-PAGE, concentrated to 3.5 mg/mL and stored at −80 °C. Yield was 450 mg/L of expressed media.
Lyso–DCN1 protein was thawed and concentrated to 9.9 mg/mL in 25 mM HEPES, pH 7.5, 200 mM NaCl, and 1 mM DTT. Each compound was incubated with protein in a 1:1.2 protein to compound molar ratio overnight at 4 °C, then spun and setup in sitting drop vapor diffusion experiments. Crystallization drops contained 2 µL of protein–inhibitor solution and 1 µL of well solution. Crystals grew at 20 °C with well solution containing 28–33% PEG 3350 and 200 mM ammonium formate. Crystals were cryoprotected in 25 mM HEPES, pH 7.5, 200 mM NaCl, 30% PEG 3350, and 1 mM DTT.
Diffraction data were collected at a wavelength of 0.9786 Å on the APS LS-CAT 21-ID-G beamline at Argonne National Laboratory. Data were processed using HKL2000[44] and solved via molecular replacement using molrep[45] with two independent search models (lysozyme and DCN1) from PDB ID 5V83. The structures were iteratively fit and refined using Coot[46] and Buster[47]. […]
Target sequence in this assay (Q96GG9 62-251): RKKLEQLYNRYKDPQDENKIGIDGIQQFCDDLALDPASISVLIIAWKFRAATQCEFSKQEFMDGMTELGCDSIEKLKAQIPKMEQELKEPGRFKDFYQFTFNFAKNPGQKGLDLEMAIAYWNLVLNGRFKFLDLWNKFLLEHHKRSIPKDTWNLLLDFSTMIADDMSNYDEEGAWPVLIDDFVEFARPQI

[3] = 10 min incubation, 1.2-fold excess inhibitor

Compound	covalent complex formation / reaction kinetics with DCN1 protein (in words) (DCN1 [1])	Percentage of the formation of covalent complex with DCN1 protein (DCN1 [1]; [3]) [%]	Percentage of the formation of covalent complex with DCN1 protein (DCN1 [1]; 720 min (12 h) incubation) [%]	solubility (Solubility)	Percentage of the formation of covalent complex with DCN1 protein (DCN1 [1]; 180 min (3 h) incubation) [%]	Percentage of the formation of covalent complex with DCN1 protein (DCN1 [1]; 60 min (1 h) incubation) [%]	covalent bond to Cys115 of DCN1 in the cocrystal structure (DCN1 [2])
C=CC(=O)NC[C@@H](NC(=O)[C@H](Cc1nc2ccc(C(C)C)cc2s1)NC(=O)CC)C1CCCCC1 [compound 3]	slow reaction kinetics	0	40	poor solubility	–	–	–
CCC(=O)N[C@@H](Cc1nc2ccc(C(C)C)cc2s1)C(=O)N[C@H](CNC(=O)CCl)C1CCCCC1 [compound 2]	slow reaction kinetics	0	70	poor solubility	15	–	–
CCC(=O)N[C@@H](Cc1nc2ccc(C(C)C)cc2s1)C(=O)N[C@H](CNC(=O)/C=C/CN1CCOCC1)C1CCCCC1 [compound 4]	slower reaction kinetics than 3 or 5	0	–	–	–	0	no covalent bond formed
